According to PMC8245855 (Acta Pharmaceutica Sinica. B, 2021):
Where two headings read alike, the source gives them in different places.

Tests used:
[1] = tested on: 5-LOX; conditions: cited from earlier work; for IC50: read-out: IC50, 5-LOX
[2] = tested on: 15-LOX; conditions: 10 μmol/L; human neutrophils; cited from earlier work
[3] = target: T1, 12-LOX (Homo sapiens, UniProt P18054); conditions: 10 μmol/L; human neutrophils; cited from earlier work
T1 sequence (P18054 1-663): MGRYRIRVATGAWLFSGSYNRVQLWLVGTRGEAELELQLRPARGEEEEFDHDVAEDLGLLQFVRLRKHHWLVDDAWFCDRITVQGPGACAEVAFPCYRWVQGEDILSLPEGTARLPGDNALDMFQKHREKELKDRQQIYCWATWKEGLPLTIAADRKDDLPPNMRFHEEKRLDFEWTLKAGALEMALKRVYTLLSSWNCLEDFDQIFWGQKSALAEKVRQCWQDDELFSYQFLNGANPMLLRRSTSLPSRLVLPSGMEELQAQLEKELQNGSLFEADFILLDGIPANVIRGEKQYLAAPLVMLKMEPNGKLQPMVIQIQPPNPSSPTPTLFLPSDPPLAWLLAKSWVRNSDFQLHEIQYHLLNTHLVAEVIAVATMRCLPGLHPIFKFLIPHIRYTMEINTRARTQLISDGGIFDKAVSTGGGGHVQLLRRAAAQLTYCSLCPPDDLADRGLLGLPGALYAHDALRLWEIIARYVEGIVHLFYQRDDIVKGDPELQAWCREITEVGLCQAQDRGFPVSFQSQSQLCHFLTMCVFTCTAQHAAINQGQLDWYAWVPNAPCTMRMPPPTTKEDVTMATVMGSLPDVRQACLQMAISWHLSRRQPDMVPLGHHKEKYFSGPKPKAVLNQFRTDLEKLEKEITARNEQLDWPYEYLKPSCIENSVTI

[4] = target: T2, 5-LOX (Homo sapiens, UniProt P09917); assay: cell-free 5-LOX activity; format: biochemical; conditions: for IC50: read-out: IC50, human recombinant 5-LOX, arachidonic acid 20 μmol/L
T2 sequence (P09917 1-674): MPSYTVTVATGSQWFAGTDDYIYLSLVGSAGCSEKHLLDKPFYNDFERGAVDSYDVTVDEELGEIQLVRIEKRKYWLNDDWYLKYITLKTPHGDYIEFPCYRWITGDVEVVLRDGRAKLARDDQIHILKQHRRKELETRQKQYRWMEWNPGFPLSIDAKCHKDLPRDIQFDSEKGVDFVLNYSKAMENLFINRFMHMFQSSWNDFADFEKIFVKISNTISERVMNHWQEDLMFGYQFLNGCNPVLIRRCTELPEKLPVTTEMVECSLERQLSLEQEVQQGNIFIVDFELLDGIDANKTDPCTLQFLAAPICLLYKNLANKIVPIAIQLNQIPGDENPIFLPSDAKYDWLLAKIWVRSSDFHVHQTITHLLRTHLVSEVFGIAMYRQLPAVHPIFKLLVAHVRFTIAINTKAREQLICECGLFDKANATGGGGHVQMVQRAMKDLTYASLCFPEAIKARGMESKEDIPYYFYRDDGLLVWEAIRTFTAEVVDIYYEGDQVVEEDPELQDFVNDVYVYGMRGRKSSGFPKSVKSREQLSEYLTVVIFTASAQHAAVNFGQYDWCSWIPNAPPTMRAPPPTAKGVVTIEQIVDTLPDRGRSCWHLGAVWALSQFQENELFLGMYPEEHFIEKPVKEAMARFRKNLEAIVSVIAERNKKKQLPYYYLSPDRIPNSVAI

[5] = target: T2, 5-LOX; assay: 5-LOX product formation in activated PMNL; format: cell-based; conditions: for IC50: read-out: IC50, 5-LOX product formation, activated PMNL, A23187 plus arachidonic acid
[6] = tested on: COX-1; conditions: read-out: IC50, COX-1; cited from earlier work
[7] = tested on: human neutrophils or macrophages; conditions: cited from earlier work

In the case of “3-O-acetyl-11-keto-β-boswellic acid [AKBA]”, the IC50 [1] is listed as 3 µM, the “formation of 15-LOX metabolites” value [2] is listed as 210% and the “formation of 12-LOX metabolites” value [3] is listed as 270%.

`COc1ccc(C(CCc2ccc(O)cc2OC)c2cc3c(c(C)c2O)OC(c2ccc(O)cc2)CC3)cc1` (centres unmarked) [Compound 3] showed an IC50 [4] of 0.3 ± 0.07 µM and an IC50 [5] of 0.8 ± 0.14 µM.

Work on `COc1cc(O)ccc1CCC(c1ccc(O)cc1)c1c(O)c(C)c2c(c1O)C(=O)CC(c1ccc(O)cc1)O2` (centres unmarked) [Compound 4] yielded an IC50 [4] of 0.9 ± 0.26 µM and an IC50 [5] of 0.46 ± 0.12 µM.

With `CC(c1cc2ccccc2s1)N(O)C(N)=O` (centres unmarked) [Zileuton, zileuton] the “suppression of 5-LOX product formation, cell-free” value ([4]; 3 μmol/L) was 70.7 ± 2.7% and the inhibition at 3 µM ([5]; PMNL, read-out: inhibition of biosynthesis of 5-LOX metabolites, PMNL) was 64.1 ± 6.3%.

For `Cc1cc(C(C)(C)C)c(O)c(C)c1CC1=NCCN1` [oxymetazoline], the “5-LOX product formation” value ([1]; 1000 μmol/L) is given as “failed to inhibit” and the SPM formation ([7]; 400 μmol/L) is given as 130%.

For ginkgolic acid, the IC50 [1] is listed as 0.2 µM and the SPM formation ([7]; 10 μmol/L) is listed as 110%–240%.
